18 compounds from patent US20190105367A1, “ANTIMICROBIAL 4-OXOQUINOLIZINES” (Emergent Product Development Gaithersburg Inc., priority 2011, published 2019) can be followed below.

SMILES strings stand for the structures. Values after ≈ are worked out from the molar mass of the structure shown. Read-outs that look alike come from different tables or passages of the source.

The test system of one experiment is A. baumannii ATCC 19606. Kind of experiment: MIC, selected panel of bacterial strains (Example 5). The experiment is classed as cell-based, Acinetobacter baumannii.
In experiment [1] the test system is GN31 Acinetobacter baumannii antibiotic susceptible isolate. Kind of experiment: Chequerboard synergy with polymyxin B, FICI (Example 6). The experiment is classed as cell-based. From the text:
(§1) A chequerboard technique was used to identify possible synergistic or antagonistic interactions between the 4-oxoquinolizines compounds, levofloxacin and polymyxin B. Levofloxacin was included as a control. […] Final dilutions were made in Mueller-Hinton broth, the specific test medium used for MIC determinations according to CLSI guidelines (CLSI. Methods for Dilution Antimicrobial Susceptibility Tests for Bacteria That Grow Aerobically; Approved Standard-Eighth Edition (2009). CLSI Document M07-A8. CLSI, Wayne, Pa. 19087-1898, USA.). The test medium used was a cation-adjusted Mueller-Hinton Broth II (Becton Dickinson UK Ltd., Oxford Science Park, Oxford, UK, OX4 4DQ).
(§2) The compounds 2, 33 and 35, as well as levofloxacin were tested in combination with polymyxin B on the following isolates: GN31 Acinetobacter baumannii—antibiotic susceptible clinical isolate, GN52 Acinetobacter baumannii—levofloxacin resistant clinical isolate, GN56 Acinetobacter baumannii—levofloxacin resistant clinical isolate, GN48 Klebsiella pneumoniae—NCTC 13443—NDM-1-metallo-β-lactamase and GN10 Pseudomonas aeruginosa—ATCC 27853—antibiotic susceptible reference isolate. All isolates are from the collection maintained at Quotient Bioresearch Ltd., Cambridge, UK.
(§3) The MIC values for the compounds and polymyxin B and levofloxacin were determined by broth microdilution following CLSI guidelines, and the MICs of agents in combination were determined as described by Pillai et. al (Pillai S K, Moellering R C Jr, Eliopoulis G M; Antimicrobial Combinations in Antibiotics in Laboratory Medicine 5th Edition (V. Lorian Ed) (2005) p 365-440). Initial MIC results were used to determine the microtiter plate patterns for the chequerboards. A suitable doubling dilution concentration range was selected such that the combination antibiotic range was at least two concentrations above and four concentrations below the MIC for each isolate. A fixed range of 0.008 to 8 mg/L was tested for polymyxin B except in the case of A. baumannii GN31 where a range of 0.004 to 4 mg/L was tested when in combination with the compounds 2, 33 and 35 as well as levofloxacin.
(§4) From the raw data, fractional inhibitory concentration indices (FICI) were determined for the compounds of the invention and levofloxacin together with polymyxin B for each isolate as follows:
(§5) FICX=concentration of the combination antibiotic in a particular row MIC of the combination drug alone
(§6) FICY=MIC of polymyxin B in combination[…]MIC of the polymyxin B alone
(§7) Additionally isobolograms were created to represent the same data visually. Here, the MIC of polymyxin B was plotted against every concentration of the combination antibiotic up to the MIC.

Experiment [2] deals with GN48 Klebsiella pneumoniae NCTC 13443 NDM-1-β-lactamase producing isolate. Described as above. The class given is cell-based.
Description: as §1, §2, §3, §4, §5, §6, §7

Experiment [3] has as its system GN52 Acinetobacter baumannii levofloxacin resistant clinical isolate. Described as above. The class given is cell-based.
Description: as §1, §2, §3, §4, §5, §6, §7

Experiment [4] concerns GN56 Acinetobacter baumannii levofloxacin resistant clinical isolate. The experiment is described as above. The experiment is classed as cell-based.
Description: as §1, §2, §3, §4, §5, §6, §7

In experiment [5] the test system is S. aureus ATCC 43300 (MRSA, FQ-S). Kind of experiment: MIC, selected panel of bacterial strains (Example 5). The experiment is classed as cell-based, Staphylococcus aureus. Particulars: Staphylococcus aureus, read-out: MICs against Gram positive bacteria S. aureus ATCC 43300 (MRSA, FQ-S).
Another experiment deals with S. aureus ATCC 25923. The experiment is described as above. The experiment is classed as cell-based, Staphylococcus aureus.
The next experiment deals with E. coli ATCC 25922. The experiment is described as above. The class given is cell-based, Escherichia coli. Particulars: Escherichia coli, ATCC25922, read-out: MICs against Gram negative bacteria E. coli ATCC 25922.
[6] abbreviates: Acinetobacter baumannii, ATCC19606, read-out: MICs against Gram negative bacteria A. baumannii ATCC 19606.
The mark [7] stands for this setting: in combination with polymyxin B.
Setting [8] is: polymyxin B with the named antibiotic.
Where [9] appears, read: Staphylococcus aureus, ATCC25923, read-out: MICs against Gram positive bacteria S. aureus ATCC 25923.

As to `Cc1c(-c2ccc(CN)s2)ccn2c(=O)c(C(=O)[O-])cc(C3CC3)c12.[K+]` [Compound 13K salt, potassium 8-(5-(aminomethyl)thiophen-2-yl)-1-cyclopropyl-9-methyl-4-oxo-4H-quinolizine-3-carboxylate], in the experiment on A. baumannii ATCC 19606 (setting [6]), the MIC came to 0.125 µg/mL.

Turning to `Cc1c(-c2ccc3[nH]ncc3c2)ccn2c(=O)c(C(=O)O)cc(C3CC3)c12` [Compound 35, 8-(1H-indazol-5-yl)-1-cyclopropyl-9-methyl-4-oxo-quinolizine-3-carboxylic acid], the “Combination drug MIC alone” value in experiment [1] worked out at 0.03 µg/mL; in experiment [3] it was 2 µg/mL; in experiment [4], 8 µg/mL. The FICx in experiment [1] stood at 0.13; in experiment [2], 0.06; in experiment [3] it was 0.25; in experiment [4] it was 0.06. The FICy is 0.48 in experiment [1], 0.50 in experiment [2], 0.24 in experiment [3] and 0.50 in experiment [4]. In addition, the FICI in experiment [1] (combination with polymyxin B) amounted to 0.61; in experiment [2] (combination with polymyxin B), 0.56; in experiment [3] (combination with polymyxin B) it was 0.49; in experiment [4] (combination with polymyxin B) it was 0.56. For the same compound, the Synergy entry in experiment [1] (combination with polymyxin B) is “Partial synergy (partial synergy/addition (FICI 0.51 to 0.75))”; in experiment [2] (combination with polymyxin B) it was “Partial synergy (partial synergy/addition (FICI 0.51 to 0.75))”; in experiment [2] (combination with polymyxin B, listed as compound 35), “partial synergy”; in experiment [3] (combination with polymyxin B) it was “Synergy (Synergy (FICI <0.5))”; in experiment [4] (combination with polymyxin B), “Partial synergy (partial synergy/addition (FICI 0.51 to 0.75))”. For the same compound, the “Combination drug concentration in combination” value in experiment [1] (setting [7]) turned out to be 0.004 mg/L; in experiment [2] (setting [7]), 1 mg/L; in experiment [3] (setting [7]), 0.5 mg/L; in experiment [4] (setting [7]), 0.5 mg/L. The “Polymyxin B MIC in combination” value in experiment [1] (setting [8]) came out at 0.12 µg/mL; in experiment [2] (setting [8]) it was 0.25 µg/mL; in experiment [3] (setting [8]) it was 0.12 µg/mL; in experiment [4] (setting [8]), 0.25 µg/mL.

As to `Cc1c(-c2ccc(N)nc2)c(F)cn2c(=O)c(C(=O)[O-])cc(C3CC3)c12.[K+]` [Compound 60K salt, potassium 8-(6-aminopyridin-3-yl)-1-cyclopropyl-7-fluoro-9-methyl-4-oxo-4H-quinolizine-3-carboxylate], the MIC in experiment [5] is < 0.004 µg/mL.

Take `Cc1c(-c2ccc(O)cc2)c(F)cn2c(=O)c(C(=O)[O-])cc(C3CC3)c12.[K+]` [Compound 61K salt, potassium 8-(4-hydroxyphenyl)-1-cyclopropyl-7-fluoro-9-methyl-4-oxo-4H-quinolizine-3-carboxylate]: the MIC in the experiment on A. baumannii ATCC 19606 (setting [6]) was 0.125 µg/mL; in the experiment with S. aureus ATCC 25923 (setting [9]) it was 50 µg/mL; in experiment [5] it was < 0.004 µg/mL.

For the compound `Cc1c(C2=CCNCC2)c(F)cn2c(=O)c(C(=O)[O-])cc(C3CC3)c12.[K+]` [Compound 62K salt, potassium 8-(1,2,3,6-tetrahydropyridin-4-yl)-1-cyclopropyl-7-fluoro-9-methyl-4-oxo-4H-quinolizine-3-carboxylate], in experiment [5], the MIC is 0.125 µg/mL.

Regarding `CC(=O)NCc1ccc(-c2ccn3c(=O)c(C(=O)[O-])cc(C4CC4)c3c2C)cc1.[K+]` [Compound 64K salt, potassium 8-(4-(Acetamidomethyl)phenyl)-1-cyclopropyl-9-methyl-4-oxo-4H-quinolizine-3-carboxylate], the MIC in the experiment on E. coli ATCC 25922 worked out at 0.125 µg/mL.

Turning to `COc1cc(-c2ccn3c(=O)c(C(=O)[O-])cc(C4CC4)c3c2C)ccc1O.[K+]` [Compound 66K salt, potassium 8-(4-hydroxy-3-methoxyphenyl)-1-cyclopropyl-9-methyl-4-oxo-4H-quinolizine-3-carboxylate], the MIC in the experiment on E. coli ATCC 25922 turned out to be 0.125 µg/mL.

Turning to `Cc1c(-c2ccc3c(c2)C(=O)NC3)ccn2c(=O)c(C(=O)[O-])cc(C3CC3)c12.[K+]` [Compound 68K salt, potassium 8-(3-oxoisoindolin-5-yl)-1-cyclopropyl-9-methyl-4-oxo-4H-quinolizine-3-carboxylate], the MIC (in the experiment with S. aureus ATCC 25923 (setting [9]); in experiment [5]) was 50 µg/mL in each case.

For the compound `CNc1ccc(-c2ccn3c(=O)c(C(=O)[O-])cc(C4CC4)c3c2C)cc1C.[K+]` [Compound 69K salt, potassium 8-(3-methyl-4-(methylamino)phenyl)-1-cyclopropyl-9-methyl-4-oxo-4H-quinolizine-3-carboxylate], the MIC turned out to be 0.125 µg/mL with E. coli ATCC 25922, 50 µg/mL in the experiment with S. aureus ATCC 25923 (setting [9]) and 50 µg/mL in experiment [5].

Consider `Cc1c(-c2ccc3[nH]ncc3c2)c(F)cn2c(=O)c(C(=O)[O-])cc(C3CC3)c12.[K+]` [Compound 75K salt, potassium 8-(1H-indazol-5-yl)-1-cyclopropyl-7-fluoro-9-methyl-4-oxo-4H-quinolizine-3-carboxylate], for which the MIC (with S. aureus ATCC 25923 (setting [9]); in experiment [5]) was 50 µg/mL in each case.

For the compound `Cc1c(-c2ccc3c(c2)CCN3)ccn2c(=O)c(C(=O)[O-])cc(C3CC3)c12.[K+]` [Compound 77K salt, potassium 8-(indolin-5-yl)-1-cyclopropyl-9-methyl-4-oxo-4H-quinolizine-3-carboxylate], the MIC in the experiment with E. coli ATCC 25922 amounted to 0.125 µg/mL.

For the compound `Cc1c(-c2ccc(N3CCNCC3)nc2)ccn2c(=O)c(C(=O)[O-])cc(C3CC3)c12.[K+]` [Compound 84K salt, potassium 8-(6-(piperazin-1-yl)pyridin-3-yl)-1-cyclopropyl-9-methyl-4-oxo-4H-quinolizine-3-carboxylate], the MIC (in the experiment on S. aureus ATCC 25923 (setting [9]); in experiment [5]) was 0.125 µg/mL each time.

For the compound `Cc1c(-c2cnc3[nH]ccc3c2)ccn2c(=O)c(C(=O)[O-])cc(C3CC3)c12.[K+]` [Compound 85K salt, potassium 8-(1H-pyrrolo[2,3-b]pyridin-5-yl)-1-cyclopropyl-9-methyl-4-oxo-4H-quinolizine-3-carboxylate], the MIC (in the experiment on S. aureus ATCC 25923 (setting [9]); in experiment [5]) was 50 µg/mL in each case.

Regarding `Cc1cn2c(=O)c(C(=O)[O-])cc(C3CC3)c2c(C)c1-c1ccc(N)nc1.[K+]` [Compound 87K salt, potassium 8-(6-amino-pyridin-3-yl)-1-cyclopropyl-7,9-dimethyl-4-oxo-4H-quinolizine-3-carboxylate], in the experiment with E. coli ATCC 25922, the MIC is 0.125 µg/mL.

Consider `Cc1cn2c(=O)c(C(=O)[O-])cc(C3CC3)c2c(C)c1-c1ccc2[nH]ncc2c1.[K+]` [Compound 88K salt, potassium 8-(1H-indazol-5-yl)-1-cyclopropyl-7,9-dimethyl-4-oxo-4H-quinolizine-3-carboxylate], for which the MIC in the experiment on E. coli ATCC 25922 came out at 0.125 µg/mL.

For the compound `COc1c(-c2ccc(N)nc2)ccn2c(=O)c(C(=O)[O-])cc(C3CC3)c12.[K+]` [Compound 89K salt, potassium 8-(6-amino-pyridin-3-yl)-1-cyclopropyl-9-methoxy-4-oxo-4H-quinolizine-3-carboxylate], the MIC in the experiment on E. coli ATCC 25922 was found to be 0.125 µg/mL.

Consider `COc1c(-c2ccc3[nH]ncc3c2)ccn2c(=O)c(C(=O)[O-])cc(C3CC3)c12.[K+]` [Compound 90K salt, potassium 8-(1H-indazol-5-yl)-1-cyclopropyl-9-methoxy-4-oxo-4H-quinolizine-3-carboxylate], for which, in the experiment on E. coli ATCC 25922, the MIC is 0.125 µg/mL.

For `C[C@H]1c2cccc(O)c2C(=O)C2=C(O)[C@]3(O)C(=O)C(C(N)=O)=C(O)[C@@H](N(C)C)[C@@H]3[C@@H](O)[C@@H]21` [Doxycycline, reference compound], the MIC is 0.125 µg/mL (≈ 0.281 µM) in the experiment on A. baumannii ATCC 19606 (Acinetobacter baumannii, ATCC19606; read-out: MICs against Gram negative bacteria A. baumannii ATCC 19606) and 0.125 µg/mL (≈ 0.281 µM) with S. aureus ATCC 25923 (Staphylococcus aureus, ATCC25923; read-out: MICs against Gram positive bacteria S. aureus ATCC 25923).
